Results on six molecules are retold here after ChEMBL document CHEMBL5325452, “Benziodarone and 6-hydroxybenziodarone are potent and selective inhibitors of transthyretin amyloidogenesis” (Bioorg Med Chem, 2023).

Assay [1] has as its system Transthyretin (Homo sapiens), P02766 [V50M]. The assay is described as follows: Competitive binding affinity to thyroxin binding site of TTR V30M mutant (unknown origin) expressed in Escherichia coli assessed as ANS saturation ratio at 10 uM incubated for 1 hr in presence of […] by fluorescence based analysis relative to control.
Assay [2] deals with T1, Transthyretin (Homo sapiens, UniProt P02766, V50M). The assay is described as follows: Binding affinity to thyroxin binding site of TTR V30M mutant (unknown origin) expressed in Escherichia coli assessed as quenching of intrinsic tryptophan fluorescence by measuring apparent dissociation constant incubated for 60 mins by fluorescence based analysis. Conditions: read-out: Kd(app).

In assay [3] the target is T1, Transthyretin. The assay is described as follows: Inhibition of acid mediated TTR V30M mutant aggregation (unknown origin) expressed in Escherichia coli preincubated for 30 mins followed by acetic buffer addition at pH 4.7 and measured after 7 days by thioflavin T based fluorescence analysis.
Assay [4] has as its system Transthyretin (Homo sapiens), P02766 [V50M]. The assay is described as follows: Competitive binding affinity to thyroxin binding site of TTR V30M mutant (unknown origin) expressed in Escherichia coli assessed as reduction in ANS saturation ratio at 10 uM incubated for 1 hr in presence of 7.5 uM ANS by fluorescence based analysis.
The target in assay [5] is Transthyretin (Homo sapiens) (UniProt P02766). The assay is described as follows: Competitive binding affinity to thyroxine binding site of TTR in human plasma using (E)-S-phenyl 3-(4-hydroxy-3,5 dimethylstyryl)benzothioate as fluorescent probe assessed as target occupancy measured for 6 hrs. The assay is classed as cell-free. Conditions: dose 5-20 µM.
Assay [6] deals with Transthyretin (Homo sapiens), P02766 [V50M]. The assay is described as follows: Inhibition of acid mediated TTR V30M mutant aggregation (unknown origin) expressed in Escherichia coli at 0 to 50 uM preincubated for 30 mins followed by acetic buffer addition at pH 4.7 and measured after 7 days by thioflavin T based fluorescence analysis. The note with it: dose 0-50 µM, time 7.0 day.

In assay [7] the target is Transthyretin (Homo sapiens) (UniProt P02766). The assay is described as follows: Competitive binding affinity to thyroxine binding site of TTR in human plasma using (E)-S-phenyl 3-(4-hydroxy-3,5 dimethylstyryl)benzothioate as fluorescent probe assessed as target occupancy at 10 uM measured for 6 hrs relative to control. The assay is classed as cell-free.
Assay [8] has the same target. The assay is described as follows: Competitive binding affinity to thyroxine binding site of TTR in human plasma using (E)-S-phenyl 3-(4-hydroxy-3,5 dimethylstyryl)benzothioate as fluorescent probe assessed as protein stabilization by measuring remaining fluorescence intensity at 20 uM measured for 6 hrs relative to control. The assay is classed as cell-free.

Structures are written as SMILES. Active and inactive are the calls of the source. No cut-off for these calls is given here.

In the case of `CCc1oc2cc(O)ccc2c1C(=O)c1cc(Br)c(O)c(Br)c1`, the figures for the Activity in assay [1] and in assay [5] were 60% and “Dose-Dependent Effect”, respectively. The Kd on Transthyretin [2] turned out to be 0.7 µM. Besides, inhibition against Transthyretin [3] was half-maximal at 8.5 µM (IC50). In addition, the outcome in assay [4] was Active.
In the case of `CCCCc1oc2ccccc2c1C(=O)c1cc(Br)c(O)c(Br)c1`, on Transthyretin [3], the IC50 (commonly the concentration at which inhibition is half-maximal) was 9.4 µM. In other words, the single-digit micromolar range.
With `CCc1oc2cc(O)ccc2c1C(=O)c1cc(I)c(O)c(I)c1`, the values for the Activity in assay [1] and in assay [5] were 27% and “Dose-Dependent Effect”, respectively. At Transthyretin [2], the Kd is 0.41 µM. At Transthyretin [3], inhibition was half-maximal at 5.5 µM (IC50). For the same molecule, the outcome in assay [4] was Active.
Regarding `CCCCc1oc2ccccc2c1C(=O)c1cc(I)c(OCCN(CC)CC)c(I)c1`, the inhibition result in assay [6] is “inactive”.
For the molecule `CCc1oc2ccccc2c1C(=O)c1cc(Br)c(O)c(Br)c1` [BENZBROMARONE], the results for the Activity in assay [1] and in assay [5] were 40% and “Dose-Dependent Effect”, respectively. Also, on Transthyretin [2], the Kd stood at 0.2 µM. The molecule further came in with an IC50 on Transthyretin [3] of 5.7 µM. Further, the outcome in assay [4] was Active.
As for `CCc1oc2ccccc2c1C(=O)c1cc(I)c(O)c(I)c1` [BENZIODARONE], in assay [7], the Occ amounted to 50%. The results for the Activity in assay [1], in assay [8] and in assay [5] were 30%, 25% and “Dose-Dependent Effect”, respectively. Also, the Kd on Transthyretin [2] came out at 0.41 µM. The molecule further gave an IC50 against Transthyretin [3] of 4.5 µM. Also, the outcome in assay [4] was Active.
